# Patent US11492342B2, “Crystalline forms of piperazine-1,4-diylbis((6-(1H-benzo[d]imidazo-2-yl)pyridin-2yl)methanone)” (Landos Biopharma, Inc., priority 2020, dated 2022)
# Read-outs that look alike come from different tables or passages of the source.
# Tests used:
# [1] = system: CD25/STAT5 signaling and late-stage glycolysis; details: murine cells; cited from earlier work
# [2] = system: CD25/STAT5 signaling and late-stage glycolysis; details: human cells; cited from earlier work
# [3] = cited from earlier work
# [4] = system: TNFα production in the gastrointestinal tract, fecal calprotectin; details: mice; cited from earlier work
# [5] = Pharmacokinetic analysis: oral dosing to mice, BT-11 in plasma and colonic tissue by LC/MS/MS; details: for Colon BT-11 Concentration / Plasma BT-11 Cmax: oral; for Colon BT-11 Concentration: colon 4 hours post-dose
# Protocol: BT-11 Form 0, Form 1, and Form 2 were orally dosed to male and female mice (n=4) to provide 8 mg/kg. Plasma was collected at 1, 2, and 4 hours post-dose. At 4 hours post-dose, colons were excised and washed in PBS. Tissues were then homogenized by Fast-Prep24 instrument. Plasma and tissue homogenate were prepared by acetonitrile-based liquid-liquid extraction. BT-11 concentrations were determined by LC/MS/MS analysis using a linear calibration curve.
# [6] = Dynamic vapor sorption (DVS); type: physicochemical; details: for re-crystallization or form change during the DVS experiment: DVS kinetic plot
# Protocol: Approximately, 10 mg of sample was placed into a mesh vapor sorption balance pan and loaded into a DVS-1/DVS Intrinsic/DVS Advantage dynamic vapor sorption balance by Surface Measurement Systems. The sample was subjected to a ramping profile from 40-90% relative humidity (RH) at 10% increments, maintaining the sample at each step until a stable weight had been achieved (dm/dt 0.004%, minimum step length 30 min, maximum step length 500 min) at 25° C. After completion of the sorption cycle, the sample was dried using the same procedure to 0% RH and then a second sorption cycle back to 40% RH. Two cycles were performed. The weight change during the sorption/desorption cycles were plotted, allowing for the hygroscopic nature of the sample to be determined. XRPD analysis was then carried out on any solid retained.
# [7] = Particle size distribution (PSD) analysis; type: physicochemical
# Protocol: Particle size distribution analysis was carried out using a particle size analyzer with a dispersion cell. Approximately 50 mg of sample was weighed into a 20 mL scintillation vial and 10 mL of dispersant was added. The sample was sonicated for 30 seconds, aspirated with a glass pipette, and then added to the dispersion unit. The sample was circulated for 30 seconds to allow the dispersion to stabilize.
# [8] = Solid form change on drying, followed by XRPD; type: physicochemical
# Protocol: XRPD analysis was carried out, scanning the samples between 3 and 35° 2θ. The material was gently ground to release any agglomerates and loaded onto a multi-well plate with polymer film to support the sample. The multi-well plate was then placed into the diffractometer and analyzed using Cu K radiation (α1λ=1.54060 Å; α2=1.54443 Å; β=1.39225 Å; α1:α2 ratio=0.5) running in transmission mode (step size 0.0130° 2θ, step time 18.87 s) using 40 kV/40 mA generator settings. Data were visualized and analyzed.
# [9] = mice, 8 mg/kg, plasma collected at 1, 2 and 4 hours post-dose
# [10] = DVS, 25° C., listed as BT-11 Form 1
# [11] = DVS, 25° C., listed as BT-11 Form 2
# [12] = DVS, 25° C., listed as BT-11 Form 3
smiles,measurement,setting,value
"O=C(c1cccc(-c2nc3ccccc3[nH]2)n1)N1CCN(C(=O)c2cccc(-c3nc4ccccc4[nH]3)n2)CC1 [piperazine-1,4-diylbis((6-(1H-benzo[d]imidazo-2-yl)pyridine-2-yl)methanone)]",CD25/STAT5 signaling and late-stage glycolysis,[1],induces changes
same,CD25/STAT5 signaling and late-stage glycolysis,[2],induces changes
same,systemic absorption when orally administered,[3],poorly systemically absorbed
same,fecal calprotectin levels,[4],reduces
same,local TNFα production in the gastrointestinal tract,[4],reduces
"Cl.Cl.O=C(c1cccc(-c2nc3ccccc3[nH]2)n1)N1CCN(C(=O)c2cccc(-c3nc4ccccc4[nH]3)n2)CC1 [Form 1, piperazine-1,4-diylbis((6-(1H-benzo[d]imidazo-2-yl)pyridine-2-yl)methanone)]",Colon BT-11 Concentration,"[5]; mice, 8 mg/kg",3000 ng/g
same,Plasma BT-11 Cmax,[5]; [9],177 ng/mL
same,re-crystallization or form change during the DVS experiment,[6]; listed as BT-11 Form 1,no evidence of re-crystallization or form change
same,hygroscopic nature,[6]; [10],hygroscopic
same,total mass increase up to 90% RH,[6]; [10],24%
same,total mass lost below 20% RH,[6]; [10],6.0%
same,d10,[7]; listed as BT-11 Form 1,0.1 μm
same,d50,[7]; listed as BT-11 Form 1,0.5 μm
same,d90,[7]; listed as BT-11 Form 1,40.8 μm
"Cl.Cl.O=C(c1cccc(-c2nc3ccccc3[nH]2)n1)N1CCN(C(=O)c2cccc(-c3nc4ccccc4[nH]3)n2)CC1 [Form 2, piperazine-1,4-diylbis((6-(1H-benzo[d]imidazo-2-yl)pyridine-2-yl)methanone)]",Colon BT-11 Concentration,"[5]; mice, 8 mg/kg",4470 ng/g
same,Plasma BT-11 Cmax,[5]; [9],41 ng/mL
same,confinement to the gastrointestinal tract after oral administration,"[5]; mouse, in vivo, po",increased confinement to the gastrointestinal tract
same,re-crystallization or form change during the DVS experiment,[6]; listed as BT-11 Form 2,no evidence of re-crystallization or form change
same,mass uptake on 2nd cycle,"[6]; DVS, 25° C., 2nd cycle",0.23%
same,hygroscopic nature,[6]; [11],slightly hygroscopic
same,total mass increase up to 90% RH,[6]; [11],0.32%
same,d10,[7]; listed as BT-11 Form 2,18.2 μm
same,d50,[7]; listed as BT-11 Form 2,31.9 μm
same,d90,[7]; listed as BT-11 Form 2,83.9 μm
"Cl.Cl.O=C(c1cccc(-c2nc3ccccc3[nH]2)n1)N1CCN(C(=O)c2cccc(-c3nc4ccccc4[nH]3)n2)CC1 [Form 7, piperazine-1,4-diylbis((6-(1H-benzo[d]imidazo-2-yl)pyridine-2-yl)methanone)]",form change post-drying,[8],convert to Form 2
"Cl.Cl.O=C(c1cccc(-c2nc3ccccc3[nH]2)n1)N1CCN(C(=O)c2cccc(-c3nc4ccccc4[nH]3)n2)CC1 [Form 3, piperazine-1,4-diylbis((6-(1H-benzo[d]imidazo-2-yl)pyridine-2-yl)methanone)]",re-crystallization or form change during the DVS experiment,[6]; listed as BT-11 Form 3,No evidence of re-crystallization or form change
same,total moisture uptake due to surface moisture,"[6]; DVS, 25° C.",2.8%
same,total mass increase up to 90% RH,[6]; [12],7.8%
same,total mass lost below 20% RH,[6]; [12],5.0%
"O=C(c1cccc(-c2nc3ccccc3[nH]2)n1)N1CCN(C(=O)c2cccc(-c3nc4ccccc4[nH]3)n2)CC1 [Form 0, piperazine-1,4-diylbis((6-(1H-benzo[d]imidazo-2-yl)pyridine-2-yl)methanone)]",Cmax,"[5]; both, mouse, plasma, po, 8 mg/kg, Plasma BT-11 Cmax, mice, plasma collected at 1, 2 and 4 hours post-dose",186 ng/mL
same,Colon BT-11 Concentration,"[5]; mice, 8 mg/kg",1280 ng/g
same,d10,[7],0.2 μm
same,d50,[7],6.3 μm
same,d90,[7],19.8 μm
